Reference: patent publication US11466044B2 (WAYNE STATE UNIVERSITY, priority 2017, dated 2022)
≈ marks a conversion by molar mass, not a printed value.

Columns and labels:
[1] = test system: wild type bacterial ribosomes; assay: in-vitro translation assay, bacterial ribosomes; assay type: biochemical; details: Mycobacterium smegmatis ribosomes; read-out: IC50 Bacterial
Source text: (§1) The antiribosomal activity of these compounds was investigated with cell-free translation assays using both wild type bacterial ribosomes and hybrid ribosomes carrying eukaryotic decoding A sites enabling the prediction of selectivity.

[2] = test system: rabbit reticulocyte ribosomes; assay: in-vitro translation assay, rabbit reticulocyte ribosomes; assay type: biochemical; details: mammalian cytosolic ribosomes (rabbit)
[3] = test system: E coli carrying specific resistance determinants; assay: MIC by broth microdilution, E coli carrying specific resistance determinants; assay type: cell-based; details: for MIC AG003 E. coli AAC(3)-II: clinical isolate AG003, AAC(3)-II
P aeruginosa = assay: MIC by broth microdilution, P aeruginosa isolates; assay type: cell-based, Pseudomonas aeruginosa; details: for MIC AG031 P. aer. APH(3′)-II: clinical isolate AG031, APH(3′)-II; for MIC AG032 P. aer. APH(3′)-II: clinical isolate AG032, APH(3′)-II
E coli wild type = assay: MIC by broth microdilution, wild type E coli; assay type: cell-based; details: for MIC AG001 E. coli WT: clinical isolate AG001, WT; for MIC AG055 E. coli WT: clinical isolate AG055, WT
[4] = test system: mitochondrial ribosome (human chimeric); assay type: biochemical; details: ribosomes with a human mitochondrial decoding site; read-out: IC50 Mitoch.
Source text: as §1

[5] = test system: cytosolic ribosome (human chimeric); assay type: biochemical; details: ribosomes with a human cytosolic decoding site; read-out: IC50 Cytosolic
Source text: as §1

MRSA = assay: MIC by broth microdilution, MRSA isolates; assay type: cell-based; details: for MIC AG038 MRSA: clinical isolate AG038; for MIC AG039 MRSA AAC(6′)-I ANT(4′)-I: clinical isolate AG039, AAC(6′)-I ANT(4′)-I; for MIC AG042 MRSA AAC(6′)-I ANT(4′)-I APH(2′): clinical isolate AG042, AAC(6′)-I ANT(4′)-I APH(2′); for MIC AG044 MRSA: clinical isolate AG044
[6] = test system: A1555G mutant mitochondrial ribosome (human chimeric); assay: in-vitro translation assay, human chimeric ribosomes, A1555G mutant mitochondrial decoding site; assay type: biochemical; details: human mitochondrial decoding site with A1555G point mutation; read-out: IC50 Mitoch. A1555G
Source text: as §1

SMILES | IC50 [1] [µM] | IC50 [2] [µM] | MIC AG003 E. coli AAC(3)-II [3] [µg/mL] | MIC AG031 P. aer. APH(3′)-II (P aeruginosa) [µg/mL] | MIC AG032 P. aer. APH(3′)-II (P aeruginosa) [µg/mL] | MIC AG001 E. coli WT (E coli wild type) [µg/mL] | MIC AG055 E. coli WT (E coli wild type) [µg/mL] | IC50 [4] [µM] | IC50 [5] [µM] | MIC AG038 MRSA (MRSA) [µg/mL] | MIC AG039 MRSA AAC(6′)-I ANT(4′)-I (MRSA) [µg/mL] | MIC AG042 MRSA AAC(6′)-I ANT(4′)-I APH(2′) (MRSA) [µg/mL] | MIC AG044 MRSA (MRSA) [µg/mL] | IC50 [6] [µM] | also measured
NCC1OC(OC2C(CNC=O)OC(OC3C(O)C(N)CC(N)C3OC3OC(CO)C(O)CC3N)C2O)C(N)C(O)C1O (centres unmarked) [DC153] | 0.12 | 57 | 4 (≈ 6.38 µM) | 32 to 64 | 32 (≈ 51.1 µM) | 4 (≈ 6.38 µM) | 2 to 4 | 144 | 132 | 4 (≈ 6.38 µM) | >128 | >128 | 4 (≈ 6.38 µM) | 39 | 
NC[C@@H]1O[C@H](O[C@H]2[C@@H](O)[C@H](O[C@@H]3[C@@H](O)[C@H](N)C[C@H](N)[C@H]3O[C@H]3O[C@H](CN)[C@@H](O)[C@H](O)[C@H]3O)O[C@@H]2CO)[C@H](N)[C@@H](O)[C@@H]1O [DC-119] | 0.03 | 88 | 2 to 4 | 128 (≈ 208 µM) | 128 (≈ 208 µM) | 2 to 4 | 2 to 4 | 36 | 108 | 2 (≈ 3.25 µM) | >128 | >128 | 2 (≈ 3.25 µM) | 2.7 | 
CCCC(O)C1OC(OC2C(N)CC(N)C(O)C2OC2OC(CO)C(OC3OC(CN)C(O)C(O)C3N)C2O)C(N)C(O)C1O (centres unmarked) [DC143] | 0.16 | 66 | 32 (≈ 48.7 µM) | >64 | >64 | 32 (≈ 48.7 µM) | 32 (≈ 48.7 µM) | 328 | 259 | 32 to 64 | >64 | >64 | 16 (≈ 24.3 µM) | 93 | MIC AG036 ANT(4′,4′′) ([3]; E. coli strain AG036, ANT(4′,4′′)): 64 µg/mL (≈ 97.3 µM); MIC AG037 APH(3′)-III ([3]; E. coli strain AG037, APH(3′)-III): >128 µg/mL; MIC AG103 armA ([3]; E. coli strain AG103, armA): 16 to 32 µg/mL; MIC pH421 APH(3)-I ([3]; E. coli strain pH421, APH(3)-I): >128 μg/ml; MIC pH422 APH(3′)-II ([3]; E. coli strain pH422, APH(3′)-II): >128 μg/ml; MIC pH423 APH(3′)-VI ([3]; E. coli strain pH423, APH(3′)-VI): 32-64 μg/ml; MIC pH432 ANT(4′) ([3]; E. coli strain pH432, ANT(4′)): 4 μg/ml; MIC pH430 WT (E coli wild type; E. coli strain pH430, WT): 4 μg/ml
